The results in this text go back to patent US20070128217A1 (priority 2003, published 2007).

In assay [1] the test system is rabbit serum obtained by immunizing a rabbit with the SARS-CoV strain Frankfurt 1. It is filed as binding. The arrangement: Binding of a rabbit serum to linear peptides / Binding of a rabbit serum to looped peptides / Rabbit serum linear peptides / Rabbit serum looped peptides / Binding of a rabbit serum to linear peptides of protein N of SARS-CoV Urbani (Rabbit serum linear peptides) / Binding of a rabbit serum to looped/cyclic peptides of protein N of SARS-CoV Urbani (Rabbit serum looped peptides): unit not given here.

The subject of assay [2] is antibodies in sera from SARS patients (sera 1a, 1b, 2, 6, 37, 62, London, SARS-yellow, SARS-green). The class given is binding, human. Also noted: Binding of serum 6 to linear peptides of protein X1 of SARS-CoV Urbani / Binding of serum 37 to linear peptides of protein X1 of SARS-CoV Urbani / Binding of serum 6 to looped/cyclic peptide (PEPSCAN-ELISA) / Binding of serum 37 to looped/cyclic peptide (PEPSCAN-ELISA) / Binding of serum 37 to looped/cyclic peptides of protein X1 of SARS-CoV Urbani / Binding of serum 6 to linear peptides of protein X2 / Binding of serum 37 to linear peptides of protein X2 / Binding of serum 37 to looped/cyclic peptides of protein X2 of SARS-CoV Urbani / Binding of serum 6 to linear peptides of protein M of SARS-CoV Urbani / Binding of serum 37 to linear peptides of protein M of SARS-CoV Urbani / Binding of serum 6 to looped/cyclic peptides of protein M of SARS-CoV Urbani / Binding of serum 37 to looped/cyclic peptides of protein M of SARS-CoV Urbani / Binding of serum 6 to linear peptides of protein X3 of SARS-CoV Urbani / Binding of serum 37 to linear peptides of protein X3 of SARS-CoV Urbani / Binding of serum 37 to looped/cyclic peptides of protein X3 of SARS-CoV Urbani / Binding of serum 6 to linear peptides of protein X4 of SARS-CoV Urbani / Binding of serum 37 to linear peptides of protein X4 of SARS-CoV Urbani / Binding of serum 37 to looped/cyclic peptides of protein X4 of SARS-CoV Urbani / Binding of serum 6 to linear peptides of protein X5 of SARS-CoV Urbani / Binding of serum 37 to linear peptides of protein X5 of SARS-CoV Urbani / Binding of serum 37 to looped/cyclic peptides of protein X5 of SARS-CoV Urbani / Binding of serum 6 to linear peptides of protein N of SARS-CoV Urbani / Binding of serum 37 to linear peptides of protein N of SARS-CoV Urbani / Binding of serum 6 to linear peptide (PEPSCAN-ELISA) / Binding of serum 1a to looped/cyclic peptides of protein N of SARS-CoV Urbani / Binding of serum 1b to looped/cyclic peptides of protein N of SARS-CoV Urbani / Binding of serum 2 to looped/cyclic peptides of protein N of SARS-CoV Urbani / Binding of serum 6 to looped/cyclic peptides of protein N of SARS-CoV Urbani / Binding of serum 37 to looped/cyclic peptides of protein N of SARS-CoV Urbani / Binding of serum 62 to looped/cyclic peptides of protein N of SARS-CoV Urbani / Binding of serum London to looped/cyclic peptides of protein N of SARS-CoV Urbani / Binding of serum SARS-green to looped/cyclic peptides of protein N of SARS-CoV Urbani: unit not given here.

Assay [3] deals with control sera (pooled serum of ten healthy LUMC hospital workers; commercial negative donor pooled serum from the Dutch bloodbank). The class given is binding, human.

For SSLTSLLKTHRMCKY, in assay [1], the “Binding of a rabbit serum to linear peptides” value came to 0.3 and the “Binding of a rabbit serum to looped peptides” value was found to be 0.5. For the same sequence, in assay [2], the “Binding of serum 1a to linear peptides of protein X2” value is 0.6, the “Binding of serum 1a to looped/cyclic peptides of protein X2 of SARS-CoV Urbani” value is reported as 0.5, the “Binding of serum 1b to linear peptides of protein X2” value is listed as 0.5 and the “Binding of serum 1b to looped/cyclic peptides of protein X2 of SARS-CoV Urbani” value came out at 0.5. In assay [2], the “Binding of serum 2 to linear peptides of protein X2” value came to 0.4, the “Binding of serum 2 to looped/cyclic peptides of protein X2 of SARS-CoV Urbani” value is 0.4, the “Binding of serum 6 to linear peptides of protein X2” value was determined as 0.5 and the “Binding of serum 6 to looped/cyclic peptides of protein X2 of SARS-CoV Urbani” value is on record as 0.3. In addition, in assay [2], the “Binding of serum 37 to linear peptides of protein X2” value came to 0.5, the “Binding of serum 37 to looped/cyclic peptides of protein X2 of SARS-CoV Urbani” value was determined as 0.3, the “Binding of serum 62 to linear peptides of protein X2” value is 0.6 and the “Binding of serum 62 to looped/cyclic peptides of protein X2 of SARS-CoV Urbani” value is 0.6. Further, in assay [2], the “Binding of serum London to linear peptides of protein X2” value is reported as 0.4, the “Binding of serum London to looped/cyclic peptides of protein X2 of SARS-CoV Urbani” value came to 0.2, the “Binding of serum SARS-green to linear peptides of protein X2” value is 0.5 and the “Binding of serum SARS-green to looped/cyclic peptides of protein X2 of SARS-CoV Urbani” value is listed as 0.2. In addition, in assay [2], the “Binding of serum SARS-yellow to linear peptides of protein X2” value was 0.3 and the “Binding of serum SARS-yellow to looped/cyclic peptides of protein X2 of SARS-CoV Urbani” value came out at 0.6. For the same sequence, in assay [3], the “Binding of Control Serum Blood-Bank to Looped peptides” value is on record as 0.7, the “Binding of Control serum Blood-bank to linear peptides” value is 0.8, the “Binding of Control serum LUMC to linear peptides” value came to 0.4 and the “Binding of Control serum LUMC to looped peptides” value was found to be 0.6.

For SSSLTSLLKTHRMCK, in assay [1], the “Binding of a rabbit serum to linear peptides” value came out at 0.3 and the “Binding of a rabbit serum to looped peptides” value is listed as 0.2. In assay [2], the “Binding of serum 1a to linear peptides of protein X2” value is on record as 0.6, the “Binding of serum 1a to looped/cyclic peptides of protein X2 of SARS-CoV Urbani” value was 0.3, the “Binding of serum 1b to linear peptides of protein X2” value is listed as 0.5 and the “Binding of serum 1b to looped/cyclic peptides of protein X2 of SARS-CoV Urbani” value is given as 0.4. For the same sequence, in assay [2], the “Binding of serum 2 to linear peptides of protein X2” value stood at 0.4, the “Binding of serum 2 to looped/cyclic peptides of protein X2 of SARS-CoV Urbani” value came to 0.1, the “Binding of serum 6 to linear peptides of protein X2” value turned out to be 0.8 and the “Binding of serum 6 to looped/cyclic peptides of protein X2 of SARS-CoV Urbani” value is reported as 0.1. Further, in assay [2], the “Binding of serum 37 to linear peptides of protein X2” value was 0.6, the “Binding of serum 37 to looped/cyclic peptides of protein X2 of SARS-CoV Urbani” value is recorded as 0.2, the “Binding of serum 62 to linear peptides of protein X2” value was 0.7 and the “Binding of serum 62 to looped/cyclic peptides of protein X2 of SARS-CoV Urbani” value is on record as 0.3. In assay [2], the “Binding of serum London to linear peptides of protein X2” value was determined as 0.6, the “Binding of serum London to looped/cyclic peptides of protein X2 of SARS-CoV Urbani” value turned out to be 0.1, the “Binding of serum SARS-green to linear peptides of protein X2” value stood at 0.6 and the “Binding of serum SARS-green to looped/cyclic peptides of protein X2 of SARS-CoV Urbani” value is given as 0.3. In assay [2], the “Binding of serum SARS-yellow to linear peptides of protein X2” value amounted to 0.2 and the “Binding of serum SARS-yellow to looped/cyclic peptides of protein X2 of SARS-CoV Urbani” value is listed as 0.5. For the same sequence, in assay [3], the “Binding of Control Serum Blood-Bank to Looped peptides” value stood at 0.4, the “Binding of Control serum Blood-bank to linear peptides” value came out at 1.0, the “Binding of Control serum LUMC to linear peptides” value is 0.7 and the “Binding of Control serum LUMC to looped peptides” value was 0.4.

Regarding STALQELLIQQWIQF, in assay [1], the “Binding of a rabbit serum to linear peptides” value is recorded as 0.3 and the “Binding of a rabbit serum to looped peptides” value is 0.4. Besides, in assay [2], the “Binding of serum 1a to linear peptides of protein X2” value was 0.6, the “Binding of serum 1a to looped/cyclic peptides of protein X2 of SARS-CoV Urbani” value worked out at 0.6, the “Binding of serum 1b to linear peptides of protein X2” value turned out to be 0.4 and the “Binding of serum 1b to looped/cyclic peptides of protein X2 of SARS-CoV Urbani” value is 0.5. Further, in assay [2], the “Binding of serum 2 to linear peptides of protein X2” value came to 0.3, the “Binding of serum 2 to looped/cyclic peptides of protein X2 of SARS-CoV Urbani” value turned out to be 0.4, the “Binding of serum 6 to linear peptides of protein X2” value is listed as 0.3 and the “Binding of serum 6 to looped/cyclic peptides of protein X2 of SARS-CoV Urbani” value amounted to 0.2. Moreover, in assay [2], the “Binding of serum 37 to linear peptides of protein X2” value is reported as 0.5, the “Binding of serum 37 to looped/cyclic peptides of protein X2 of SARS-CoV Urbani” value is 0.4, the “Binding of serum 62 to linear peptides of protein X2” value is given as 0.6 and the “Binding of serum 62 to looped/cyclic peptides of protein X2 of SARS-CoV Urbani” value came out at 0.6. In addition, in assay [2], the “Binding of serum London to linear peptides of protein X2” value was 0.4, the “Binding of serum London to looped/cyclic peptides of protein X2 of SARS-CoV Urbani” value came to 0.2, the “Binding of serum SARS-green to linear peptides of protein X2” value is given as 0.5 and the “Binding of serum SARS-green to looped/cyclic peptides of protein X2 of SARS-CoV Urbani” value was 0.3. In assay [2], the “Binding of serum SARS-yellow to linear peptides of protein X2” value worked out at 0.3 and the “Binding of serum SARS-yellow to looped/cyclic peptides of protein X2 of SARS-CoV Urbani” value was 0.5. Also, in assay [3], the “Binding of Control Serum Blood-Bank to Looped peptides” value came out at 0.6, the “Binding of Control serum Blood-bank to linear peptides” value came to 0.6, the “Binding of Control serum LUMC to linear peptides” value worked out at 0.3 and the “Binding of Control serum LUMC to looped peptides” value is 0.7.

For STNLCTHSFRKKQVR, in assay [1], the “Binding of a rabbit serum to linear peptides” value is given as 0.7 and the “Binding of a rabbit serum to looped peptides” value is on record as 0.2. Besides, in assay [2], the “Binding of serum 1a to looped/cyclic peptides of protein X2 of SARS-CoV Urbani” value was found to be 0.5, the “Binding of serum 1b to looped/cyclic peptides of protein X2 of SARS-CoV Urbani” value was 0.3, the “Binding of serum 2 to looped/cyclic peptides of protein X2 of SARS-CoV Urbani” value came to 0.5 and the “Binding of serum 6 to looped/cyclic peptides of protein X2 of SARS-CoV Urbani” value came out at 0.6. Further, in assay [2], the “Binding of serum 37 to looped/cyclic peptides of protein X2 of SARS-CoV Urbani” value is 0.5, the “Binding of serum 62 to looped/cyclic peptides of protein X2 of SARS-CoV Urbani” value came to 0.5, the “Binding of serum London to looped/cyclic peptides of protein X2 of SARS-CoV Urbani” value was 0.2 and the “Binding of serum SARS-green to looped/cyclic peptides of protein X2 of SARS-CoV Urbani” value is recorded as 0.2. Moreover, in assay [2], the “Binding of serum SARS-yellow to looped/cyclic peptides of protein X2 of SARS-CoV Urbani” value stood at 0.5; the “Recognition of the peptide by sera of SARS-CoV infected individuals, and form (linear, looped/cyclic) in which it is recognized” value was “recognized in linear form”. In addition, in assay [3], the “Binding of Control Serum Blood-Bank to Looped peptides” value worked out at 0.5, the “Binding of Control serum Blood-bank to linear peptides” value was 0.9, the “Binding of Control serum LUMC to linear peptides” value turned out to be 0.8 and the “Binding of Control serum LUMC to looped peptides” value is recorded as 0.8.
